From US20220177459A1, “AROMATIC AMINE COMPOUND AND USE THEREOF IN PREPARATION OF AR AND BRD4 DUAL INHIBITORS AND REGULATORS” (HINOVA PHARMACEUTICALS INC., priority 2019, published 2022)

How the values were obtained:
22RV1 cells = experiment: Inhibition of proliferation of other prostate cancer cells: 22RV1; format: cell-based; settings: Homo sapiens, same method as LNCaP/AR
Experimental: (§1) 1) LNCaP/AR cells were subcultured in cell culture medium, and the cells in good growth condition were seeded in a 96-well plate, with 80 μL per well (i.e. 1000 cells per well), and cultured overnight in a 37° C., 5% CO2 cell incubator.
(§2) Immediately before use, the stock solution was diluted 3 times with DMSO, and then diluted as a 3-fold gradient to obtain 9 concentration gradients. Then, the compound of each concentration was diluted 200 times with the culture media (to ensure that the DMSO concentration in the culture system was 0.1%), and two multiple holes were set for each concentration. 20 μL of the diluted compound was added to the cell culture well (with a final concentration of 10 μM, 3.3 μM, 1.1 μM . . . ), and then shook gently to mix. In addition, three negative control wells with only cells and three blank control wells with only culture medium were included (6 wells being each added with DMSO diluted 200 times with 20 μL culture medium).
(§3) 1) After culturing for 6 days, 10 μL of CCK-8 was added to each well and continued culturing for 1 hour in a 37° C., 5% CO2 cell incubator.
(§4) 2) The absorbance (OD value) was measured at 450 nm using a multifunctional microplate reader.
(§5) 3) The data were analyzed by the Dose-response-inhibition equation in the software GraphPad Prism5, and the IC50 value was obtained.
(§6) 2. Biological determination of the inhibitory effect on the proliferation of other prostate cancer cells
(§7) The inhibitory activity of the compound according to the present invention on other drug-resistant prostate cancer cells was measured by the same method as described above, in which VCaP and 22RV1 cells were commercially available.

androgen receptor (AR) = biological target: T1, androgen receptor (AR) (Homo sapiens, UniProt P10275); experiment: Inhibitory activity on the function of androgen receptor (AR), luciferase reporter in transfected cells; format: cell-based; settings: transfected with AR and pGL4.36, testosterone 2 nM, Steady-Glo
T1 construct: host or cells: HEK293
T1 sequence (P10275 1-920): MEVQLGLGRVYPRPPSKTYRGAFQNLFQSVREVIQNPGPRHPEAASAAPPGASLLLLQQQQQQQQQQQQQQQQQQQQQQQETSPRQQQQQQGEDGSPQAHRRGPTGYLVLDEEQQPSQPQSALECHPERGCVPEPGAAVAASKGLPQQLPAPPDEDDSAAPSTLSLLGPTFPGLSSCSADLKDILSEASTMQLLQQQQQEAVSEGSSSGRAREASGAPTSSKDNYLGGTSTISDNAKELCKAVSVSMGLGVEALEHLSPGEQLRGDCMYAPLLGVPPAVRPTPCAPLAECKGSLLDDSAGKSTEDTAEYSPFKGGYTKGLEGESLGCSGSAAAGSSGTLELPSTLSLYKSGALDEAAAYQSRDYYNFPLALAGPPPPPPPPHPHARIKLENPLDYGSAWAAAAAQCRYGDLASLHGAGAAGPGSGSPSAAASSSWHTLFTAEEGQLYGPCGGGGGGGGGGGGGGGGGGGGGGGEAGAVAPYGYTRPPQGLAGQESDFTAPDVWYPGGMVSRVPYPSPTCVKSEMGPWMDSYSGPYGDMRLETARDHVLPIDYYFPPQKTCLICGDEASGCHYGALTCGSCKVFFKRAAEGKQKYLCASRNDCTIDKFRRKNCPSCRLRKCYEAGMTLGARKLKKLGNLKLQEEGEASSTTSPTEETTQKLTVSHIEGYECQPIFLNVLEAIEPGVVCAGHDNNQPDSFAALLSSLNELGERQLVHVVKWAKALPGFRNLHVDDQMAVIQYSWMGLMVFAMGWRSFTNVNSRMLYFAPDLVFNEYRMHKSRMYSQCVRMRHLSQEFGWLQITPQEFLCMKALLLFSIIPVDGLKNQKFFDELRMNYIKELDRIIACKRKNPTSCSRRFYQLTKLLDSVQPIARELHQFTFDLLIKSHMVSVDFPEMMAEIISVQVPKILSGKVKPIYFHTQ
Experimental: Experimental Example 2 the Inhibitory Activity of the Compound According to the Present Invention on the Function of Androgen Receptor (AR)
Androgen receptor clone (Origene, Cat. No. RC235415)
pGL4.36 vector (Promega, Cat. No. E1360)
1) The cell suspension was diluted with the culture medium for seeding cells to a concentration of 4.0×10^5 cells/ml, for plating and adding transfection reagents.
2) The diluted cell suspension was inoculated into a cell culture plate, with 100 μL per well, and the plate was placed in a cell incubator and cultured overnight.
3) The transfection reagent was prepared as 10 μL/well, and added into the cell culture plate after 15 min at room temperature, then the plate was placed in a cell incubator and cultured overnight.
4) The compound was diluted by a 3-fold gradient with TECAN sampler, to obtain 8 concentration gradients, and the final DMSO concentration was 0.25%. The diluted compound was cultured in a 37° C. incubator for 30 min.
5) 250 nL of testosterone at a final concentration of 2 nM was added to the control well with an […] sampler, placed in a cell incubator, and cultured overnight.
6) Steady-Glo was added at 100 μL/well to the cell culture plate, and then the plate was left at room temperature for 15 min, followed by reading on Envision.
The data were analyzed according to the formula % Effect=(Sample value−LC)/(HC−LC)*100, using XL-fit software (provided by Business Solutions Ltd., version number XL fit 5.0). The inhibition rate of each compound against androgen receptor (AR) was calculated, and the half-inhibitory concentration IC50 of each compound against androgen receptor (AR) was further calculated.

BRD4 (D1+D2) protein = biological target: T2, BRD4 (D1+D2) protein (Homo sapiens, UniProt O60885); experiment: HTRF binding to BRD4 (D1+D2) protein; settings: BRD4(1,2), 2 h at room temperature, read-out: IC50 (μM), inhibitory activity on BRD4
T2 construct: purchased BPS 31044
Text: Homogeneous time-resolved fluorescence technique (HTRF) was used to detect the binding effect of compound to BRD4 (D1+D2) protein.
Experimental materials: • BRD4(1,2) (BPS, Cat. No. 31044), • I-CBP 112 (MCE, Cat. No. HY-19541), • (+)-JQ1 (BPS, Cat. No. 27402).
Using homogeneous time-resolved fluorescence method, the detection steps are as follows:
1. According to the layout of the detection plate, the test compound was gradiently diluted on the Echo plate, and the final dilution concentration of DMSO was 0.1%.
2. The compound or DMSO was transferred to the 384-well detection plate with the Echo automatic sampler.
3. Two-fold concentration of protein and peptide mixture was added to the detection plate.
4. Two-fold concentration of the detection mixture was added to the detection plate, and shook for 30 s.
5. Incubating for 2 h at room temperature.
6. The fluorescence signal was read on the Envision multifunctional microplate reader (excitation wavelength at 340 nm; emission wavelength at 615 nm and 665 nm).
1. The experimental data were entered into an Excel file, and equation (1) was used to calculate the inhibition rate:
Inh %=(Max−Signal)/(Max−Min)*100 Equation (1)
2. The obtained data were input into GraphPad software, and equation (2) was used to calculate the IC50 value.
Y=Bottom+(Top−Bottom)/(1+10^((LogIC50−X)*Hill Slope)) Equation (2)
wherein, Y axis is the inhibition rate, while X axis is the compound concentration.

VCaP cells = experiment: Inhibition of proliferation of other prostate cancer cells: VCaP; format: cell-based; settings: Homo sapiens, same method as LNCaP/AR
Experimental: as §1, §2, §3, §4, §5, §6, §7

LNCaP/AR cells = experiment: Inhibition of proliferation of prostate cancer cells LNCaP/AR (CCK-8); format: cell-based; settings: 144 h, 6 days culture, CCK-8, OD 450 nm, read-out: IC50 (μM), inhibitory activity on prostate cancer cell LNCap/AR
Experimental: 1. Biological determination of the inhibitory effect on the proliferation of prostate cancer cells LNCaP/AR
Cell culture medium: RIPM1640 media, 10% FBS, 1% Pen Strep;
as §1
2) The drug was prepared with dimethylsulfoxide (DMSO) as a 10 mM stock solution.
as §2, §3, §4, §5

Compound	IC50 (22RV1 cells) [µM]	IC50 (androgen receptor (AR)) [µM]	IC50 (BRD4 (D1+D2) protein) [µM]	IC50 (VCaP cells) [µM]	IC50 (LNCaP/AR cells) [µM]
CCN(c1ccc(F)c(-n2ccnc2)c1)c1cc(-c2c(C)noc2C)ccc1C [Compound 83]	5.2	0.83	6.7	1.27	
CCN(c1ccc(C#N)c(Cl)c1)c1cc(-c2c(C)nn(C)c2C)ccc1C [Compound 2]	5.2	0.78		0.78	0.51
CCN(c1ccc(-n2ccnc2)c(C(F)(F)F)c1)c1cc(-c2c(C)noc2C)ccc1C [Compound 32]	3.5			0.98	1.4
CCN(c1ccc(-n2ccnc2C)cc1)c1cc(-c2c(C)noc2C)ccc1C [Compound 27]	3.77	0.89	4.1	0.99	0.38
CCN(c1ccc(C2(C#N)CC2)cc1)c1cc(-c2c(C)noc2C)ccc1C [Compound 111, 1-(4-((5-(3,5-dimethylisoxazol-4-)-2-methylphenyl)(ethyl)amino)phenyl)cyclopropanecarbonitrile]	0.27	1.6			0.14
CCN(c1ccc(-n2cnc(C)c2)cc1)c1cc(-c2c(C)noc2C)ccc1C [Compound 26]	4.08			1.16	1.14
CCN(c1ccc(-n2ccnn2)c(Br)c1)c1cc(-c2c(C)noc2C)ccc1C [Compound 45]	7.75	1.7	1.9	0.75	0.82
CCN(c1ccc(C#N)c(Cl)c1)c1cc(-c2c(C)noc2C)ccc1C [Compound 14]		1.5			0.55
CCN(c1ccc(-c2c(C)noc2C)cc1)c1cc(-c2c(C)noc2C)ccc1C [Compound 104]		1.3			
CCN(c1ccc(-n2ccnn2)cc1)c1cc(-c2c(C)noc2C)ccc1C [Compound 33]	2.41			0.88	0.75
CCN(c1ccc(OC)cc1)c1cc(-c2c(C)noc2C)ccc1C [Compound 101]	0.07				
CCN(c1ccc(-n2ccnc2)c(Cl)c1)c1cc(-c2c(C)noc2C)ccc1C [Compound 30]	> 10			2.27	0.9
CCN(c1ccc(C(C)(C)C#N)cc1)c1cc(-c2c(C)noc2C)ccc1C [Compound 110]		1.6			0.93
CCN(c1ccc(-n2cnc(Cl)c2)c(Br)c1)c1cc(-c2c(C)noc2C)ccc1C [Compound 43]					2.79
CCN(c1ccc(-c2csnn2)cc1)c1cc(-c2c(C)noc2C)ccc1C [Compound 108, N-(4-(1,2,3-thiazol-4-yl)phenyl)-5-(3,5-dimethylisoxazol-4-yl)-N-ethyl-2-methylaniline]					0.76
CCN(c1ccc(-c2cc(C)[nH]n2)cc1)c1cc(-c2c(C)noc2C)ccc1C [Compound 97, 5-(3,5-dimethylisoxazol-4-)-N-ethyl-2-methyl-N-(4-(5-methyl-1H-pyrazol-3-yl)phenyl)aniline]					3.23
CCN(c1ccc(-n2ccnc2)cc1)c1cc(-c2c(C)n[nH]c2C)ccc1C [Compound 21]					3.98
CCN(c1ccc(-n2ccnc2)c(F)c1)c1cc(-c2c(C)noc2C)ccc1C [Compound 29]	5.6	0.45		1.22	0.49
CCN(c1ccc(-n2cnnc2)cc1)c1cc(-c2c(C)noc2C)ccc1C [Compound 34]	2.58			1	0.95

More lines, now with the values ahead:

IC50 (22RV1 cells) [µM]	IC50 (androgen receptor (AR)) [µM]	IC50 (BRD4 (D1+D2) protein) [µM]	IC50 (VCaP cells) [µM]	IC50 (LNCaP/AR cells) [µM]	Compound
5.64				3.03	CCN(c1ccc(C(N)=O)cc1)c1cc(-c2c(C)noc2C)ccc1C [Compound 123]
9.79				1.13	CCN(c1ccc(-c2nnco2)cc1)c1cc(-c2c(C)noc2C)ccc1C [Compound 129]
0.63					Cc1ccc(-c2c(C)noc2C)cc1Nc1ccc(Br)cc1 [Compound 120]
0.63	4.9			0.61	CCN(c1ccc(Br)cc1)c1cc(-c2c(C)noc2C)ccc1C [Compound 116]
3.17				0.99	CCN(c1ccc(-c2cn[nH]c2C)cc1)c1cc(-c2c(C)noc2C)ccc1C [Compound 126]
6.06				0.89	CCN(c1ccc(-c2ccon2)cc1)c1cc(-c2c(C)noc2C)ccc1C [Compound 134]
	3.4				CCN(c1ccc(-c2ccnn2C)cc1)c1cc(-c2c(C)noc2C)ccc1C [Compound 127]
				1.86	CCN(c1ccc(C2(C#N)CCC2)cc1)c1cc(-c2c(C)noc2C)ccc1C [Compound 112]
				0.17	Cc1ccc(-c2c(C)noc2C)cc1Nc1ccc(-c2c(C)noc2C)cc1 [Compound 119]
				8.74	CCN(c1ccc2[nH]ncc2c1)c1cc(-c2c(C)noc2C)ccc1C [Compound 133]
